# Measured values published in US10458916B2, “Rapid tests for the detection of inhibitors of enzymes and human exposure to the same” (priority 2011, dated 2019).
# Key:
# AChE [1] = molecular target: T1, AChE (Electrophorus electricus, UniProt O42275); assay: Rapid ticket test for AChE inhibitors with lyophilized AChE and NMI substrate discs, hue ratio by reader; details: without oxidation
# Description: Filter discs ( 3/16″ diameter) of porous matrix Surewick Sample Pad C248 SA3J035V06 (Millipore). were punched from sheets using a manual punch and die.
# N-methyl indoxyl (NMI) acetate (100 mg, Sigma-Aldrich) was dissolved in 100 mL 200 proof (100%) USP ethyl alcohol (Sigma-Aldrich) for a final concentration of 1 mg/mL and added to the beaker containing the filter pads. The filter discs were mixed gently with a spatula for five minutes. The discs were then carefully removed from the solution and spread out on a polystyrene sheet and dried at 45° C. for two hours. The filter discs were then removed from the oven and stored in a resealable plastic bag with desiccant. […]
# The tickets were allowed to react for 15 minutes at room temperature and then inserted into the handheld fluorescence reader comprised of low light color cameras, 400 nm UV LED and custom color analysis software (FIG. 2). Enzyme inhibition was detected by the difference in the hue measurement of the Test Sample compared to the negative control (FIG. 4). The reader calculates a ratio of the hue measured in the test sample well to the hue measured in the negative control well.
# Analysis was alternatively performed by visual observation of the ticket using a 400 nm UV LED flashlight (FIGS. 7 and 8). Visually, inhibition was detected directly based on the decrease in fluorescence of the test sample compared to the negative control.
# Carboxylesterase (CE) = assay: Rapid ticket test with lyophilized carboxylesterase (CE) and NMI substrate discs, no sample oxidation; details: without oxidation
# AChE [2] = molecular target: T1, AChE; assay: Effect of heating the AChE reaction vials on time of detection of a positive sample; format: biochemical, eel; set-up: purchased Sigma-Aldrich; details: 0.1 ppm oxamyl in water; for Detection result, Heated: heating block 40° C.; for Detection result, Not Heated: room temperature (21° C.)
# Description: Water obtained from reverse osmosis treatment was spiked with 0.1 ppm oxamyl, a carbamate pesticide. The pesticide-contaminated sample was tested using the procedure described in Example 4. Two sets of two reagent vials containing AChE were opened. To the first vial of each set was added 1 mL of the test sample containing pesticide. To the second vial of each set was added 1 mL of a negative control water. All vials were thoroughly mixed. One set of vials was placed in a heating block set at 40° C., while the other set of vials was allowed to stand at room temperature (21° C.). From each set of vials, 50 μL was sampled at 5, 10, 15, and 20 minutes and transferred to corresponding reaction zones in test tickets. After 15 minutes incubation, the fluorescence in the reaction zones of each ticket were measured on a reader.
# [3] = molecular target: T2, cholinesterase in human plasma (Homo sapiens, UniProt P06276); assay: Detection of cholinesterase inhibition in spiked human plasma on the NMI ticket; format: biochemical; details: human plasma pool spiked to final 100 ppm oxamyl, incubated overnight (22 hours) at room temperature; control zone unspiked pool
# T2 construct: from tissue; host or cells: human plasma pool
# T2 sequence (P06276 29-602): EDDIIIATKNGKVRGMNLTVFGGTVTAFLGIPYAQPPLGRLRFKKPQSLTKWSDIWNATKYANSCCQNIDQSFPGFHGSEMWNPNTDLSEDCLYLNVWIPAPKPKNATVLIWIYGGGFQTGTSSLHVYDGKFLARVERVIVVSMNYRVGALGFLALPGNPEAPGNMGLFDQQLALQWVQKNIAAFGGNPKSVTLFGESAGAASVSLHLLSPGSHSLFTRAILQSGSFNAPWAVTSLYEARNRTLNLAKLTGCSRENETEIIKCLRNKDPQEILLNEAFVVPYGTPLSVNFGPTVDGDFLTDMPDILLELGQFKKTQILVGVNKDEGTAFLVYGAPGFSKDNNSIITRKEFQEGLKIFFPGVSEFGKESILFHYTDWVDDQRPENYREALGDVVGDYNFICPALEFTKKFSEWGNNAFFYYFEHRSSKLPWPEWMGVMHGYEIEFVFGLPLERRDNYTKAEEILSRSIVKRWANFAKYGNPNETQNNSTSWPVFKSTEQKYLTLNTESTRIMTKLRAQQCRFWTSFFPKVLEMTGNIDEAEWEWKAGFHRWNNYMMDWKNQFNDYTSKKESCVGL
# T1 sequence (O42275 24-633): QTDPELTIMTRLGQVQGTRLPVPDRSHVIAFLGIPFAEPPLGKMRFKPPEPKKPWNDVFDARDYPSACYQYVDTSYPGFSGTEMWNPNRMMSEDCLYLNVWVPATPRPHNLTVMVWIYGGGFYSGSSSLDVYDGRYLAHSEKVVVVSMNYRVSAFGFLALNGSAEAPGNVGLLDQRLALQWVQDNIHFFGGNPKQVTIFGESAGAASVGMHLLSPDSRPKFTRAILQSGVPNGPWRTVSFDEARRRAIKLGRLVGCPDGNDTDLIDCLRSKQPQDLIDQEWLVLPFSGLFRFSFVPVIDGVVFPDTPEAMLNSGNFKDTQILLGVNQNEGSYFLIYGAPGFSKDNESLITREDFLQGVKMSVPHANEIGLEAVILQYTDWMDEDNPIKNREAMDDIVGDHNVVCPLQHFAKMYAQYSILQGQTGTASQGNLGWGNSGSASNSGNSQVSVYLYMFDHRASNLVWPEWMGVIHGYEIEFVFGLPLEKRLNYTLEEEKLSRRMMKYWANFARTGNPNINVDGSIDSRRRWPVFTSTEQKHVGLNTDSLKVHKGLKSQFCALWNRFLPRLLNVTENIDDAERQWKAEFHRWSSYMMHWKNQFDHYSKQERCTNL
smiles,measurement,setting,value
"CNC(=O)O/N=C/C(C)(C)SC [Aldicarb, aldicarb]",Reaction with AChE (in words),AChE [1],react strongly with AChE
"COP(N)(=O)SC (stereo not shown) [Methamidophos, methamidophos]",Reaction with CE compared with AChE (in words),Carboxylesterase (CE),react more strongly with CE than with AChE
"COP(=S)(OC)Oc1ccc([N+](=O)[O-])cc1 [Methyl Parathion, methyl parathion]",Reaction with CE compared with AChE (in words),Carboxylesterase (CE),react more strongly with CE than with AChE
"CNC(=O)O/N=C(\SC)C(=O)N(C)C [Oxamyl, oxamyl]",Reaction with AChE (in words),AChE [1],react strongly with AChE
same,"Detection result, Heated",AChE [2]; 5 min,positive
same,"Detection result, Heated",AChE [2]; 10 min,positive
same,"Detection result, Heated",AChE [2]; 15 min,positive
same,"Detection result, Heated",AChE [2]; 20 min,positive
same,"Detection result, Not Heated",AChE [2]; 5 min,negative
same,"Detection result, Not Heated",AChE [2]; 10 min,negative
same,"Detection result, Not Heated",AChE [2]; 15 min,positive
same,"Detection result, Not Heated",AChE [2]; 20 min,positive
same,hue ratio,[3],3.10
